“And” between values parts separate entries of the source, which are not always exact repeats. Equal values may be shown once. Read-outs that look alike come from different tables or passages of the source. One block for each compound: values may come before it.
Columns and labels:
NCI-H929 cell = assay: MTT proliferation inhibition, NCI-H929; conditions: Homo sapiens, NCI-H929, 72 h, read-out: Cytotoxicity IC50 (nM) NCI-H929 cell
Procedure: (§3) Experimental Method: Cell viability was determined by MTT method preformed as follows. Cells grown at the logarithmic growth phase was digested with a 0.01% trypsin, counted, plated in a 96-cell plate at a cell density of 2.0*10^3/well for 100 ml, and cultured in a 5% CO2 incubator at a temperature of 37° C. overnight. For each of the compounds, a gradient of six concentrations were set, in triplicate for each concentration. […] 20 ml of 5 mg/ml MTT was added to each of the cells. After incubation at a temperature of 37° C. for 3 h, supernatant was removed by suction. 100 ml of DMSO was added for dissolution. Absorption at 550 nm (L1) was determined by using SpectraMAX 340 with a reference wavelength of 690 nm (L2). The values of (L1-L2) were plotted against various concentrations, and fitted into a formula to give IC50.

[1] = test system: subcutaneous xenograft of human myeloma RPMI 8226; assay: Growth inhibition of subcutaneous xenograft of human myeloma RPMI 8226 in NOD/SCID mice; type: in vivo; conditions: for Tumor inhibition (%) / Tumor weight (g) mean ± SD: RPMI8226 xenograft NOD/SCID mice; for Tumor weight (g), single animals: individual mice
Procedure: Experimental Method: Human myeloma RPMI8226 cell strain was inoculated subcutaneously at right flank of NOD/SCID mice with an inoculation quantity of 1×10^7 cells/mouse. After forming a xenograft, the experiment was started.
The diameters of subcutaneous xenografts of NOD/SCID mice were measured with a vernier caliper. After the tumor was grown to the size of 100-300 mm^3, the animals were grouped randomly. Equal volume of blank solvent was administered to the group of solvent control. During the experimentation, the diameters of subcutaneous xenografts were measured twice a week, and the mice were weighed at the same time.

RPMI8226 cell = assay: MTT proliferation inhibition, RPMI8226; conditions: Homo sapiens, RPMI-8226, 72 h, read-out: Cytotoxicity IC50 (nM) RPMI8226 cell
Procedure: as §3

HELA = assay: MTT cell activity, HELA; type: cell-based; conditions: Homo sapiens
LP1 = assay: MTT proliferation inhibition, LP1; type: cell-based; conditions: Homo sapiens, LP-1
Procedure: (§1) […] of DMSO was added for dissolution.
(§2) The experimental method may be referred to Test Example 2, except that the cell strains of RPMI8226 and NCI-H929 were replaced with corresponding tumor cells.

HCT116 = assay: MTT proliferation inhibition, HCT116; type: cell-based; conditions: Homo sapiens
Procedure: as §1, §2

MGC-803 = assay: MTT proliferation inhibition, MGC-803; type: cell-based; conditions: Homo sapiens
Procedure: as §1, §2

MM-1S = assay: MTT cell activity, MM-1S; type: cell-based; conditions: Homo sapiens, MM1.S; 100 nM
Procedure: as §3

MTT cell activity, BORT = type: cell-based
Procedure: as §3

MCF-7 = assay: MTT proliferation inhibition, MCF-7; type: cell-based; conditions: Homo sapiens, MCF7
Procedure: as §1, §2

PC-3 = assay: MTT proliferation inhibition, PC-3; type: cell-based; conditions: Homo sapiens
Procedure: as §1, §2

MM-1R = assay: MTT cell activity, MM-1R; type: cell-based; conditions: 100 nM
K562 = assay: MTT cell activity, K562; type: cell-based; conditions: Homo sapiens
[2] = MTT proliferation inhibition, NCI-H929
Procedure: as §3

[3] = molecular target: Human proteasome chymotrypsin-like protease (Homo sapiens, UniProt P28074); assay: Proteasome CT-L inhibition, fluorescent substrate Suc-Leu-Leu-Val-Tyr-AMC; type: biochemical
Text: Experimental Method: By using a fluorescent substrate Suc-Leu-Leu-Val-Tyr-AMC to observe the inhibition of various compounds on activity of the enzyme, the inhibitory effect of the compounds was preliminarily evaluated. Human proteasome chymotrypsin-like protease may hydrolyze the sequence Tyr-AMC of the substrate to release AMC.

[4] = MTT proliferation inhibition, RPMI8226
Procedure: as §3

[5] = molecular target: proteasome PGPH active site (Homo sapiens, UniProt P28072); assay: Proteasome PGPH inhibition, substrate Z-Leu-Leu-Glu-AMC; type: biochemical
[6] = molecular target: proteasome T-L active site (Homo sapiens, UniProt Q99436); assay: Proteasome T-L inhibition, substrate Bz-Val-Gly-Arg-AMC; type: biochemical

Compound: CC(C)C[C@H](NC(=O)[C@H](Cc1ccccc1)NC(=O)c1cnccn1)B(O)O [Bortezomib]
IC50 (NCI-H929 cell): 9.5 nM
Tumor inhibition (%) ([1]; 1 mg/kg): 34.78%
Tumor weight (g) mean ± SD ([1]; 1 mg/kg): 0.83 ± 0.25 g
Tumor weight (g), single animals ([1]; 1 mg/kg): 1.21 g and 0.38 g and 0.92 g and 0.90 g and 0.74 g and 0.80 g
IC50 (RPMI8226 cell): 1.8 nM

IC50 (HCT116; HCT-116, MTT): 8.93 ± 1.44 µM
IC50 (MGC-803): 8.95 ± 0.12 nM
IC50 (MCF-7): 1.02 ± 0.07 µM
IC50 (PC-3): 24.2 ± 2.72 µM
Compound: CC(C)C[C@H](NC(=O)[C@H](CCc1ccccc1)NC(=O)CN1CCOCC1)C(=O)N[C@@H](Cc1ccccc1)C(=O)N[C@@H](CC(C)C)C(=O)[C@@]1(C)CO1 [Carfilzomib, reference compound]
activity at 10 µM (HELA): 61.2 ± 3.44%
IC50 (LP1): 22.7 ± 2.51 nM
IC50 (NCI-H929 cell): 28.8 nM
Tumor inhibition (%) ([1]; 4 mg/kg): 58.10%
Tumor weight (g) mean ± SD ([1]; 4 mg/kg): 0.53 ± 0.21 g
Tumor weight (g), single animals ([1]; 4 mg/kg): 0.57 g and 0.38 g and 0.32 g and 0.85 g
activity at 0.1 µM (MM-1S): 76.2 ± 1.36%
activity at 1 µM (MTT cell activity, BORT): 61.1 ± 2.49%
activity at 0.1 µM (MM-1R): 92.2 ± 6.34%
IC50 (RPMI8226 cell): 3 nM
activity at 10 µM (K562): 58.6 ± 1.04%

IC50 [3]: 90.8 nM
Compound: CC(C)C[C@H](NC(=O)N1CCN(C(=O)c2cnccn2)CC1)C(=O)N[C@@H](Cc1ccccc1)C(=O)N[C@@H](CC(C)C)C(=O)[C@@]1(C)CO1 [Compound 5c, 4-(pyrazin-2-oyl)piperazin-1-oyl-Leu-Phe-Leu-epoxy ketone]
IC50 [2]: 100 nM
IC50 [4]: 28.9 nM

PGHP (Fold/CT-L) ([5]; ratio of PGHP IC50 to CT-L IC50): 321.0
IC50 ([5]; read-out: IC50 (nM) PGHP): 485 ± 26.1 nM
IC50 (HCT116; HCT-116, read-out: IC50 HCT116): 0.00572 ± 0.00072 µM
IC50 (MGC-803): 3.72 ± 0.13 nM
IC50 [6]: 3180 ± 47.2 nM
T-L (Fold/CT-L) ([6]; ratio of T-L IC50 to CT-L IC50): (2107.0)
IC50 (MCF-7): 0.42 ± 0.04 µM
IC50 (PC-3): 7.74 ± 0.77 µM
IC50 [3]: 1.5 nM
Compound: CC(C)C[C@H](NC(=O)N1CCC(C(=O)Nc2ccccn2)CC1)C(=O)N[C@@H](Cc1ccccc1)C(=O)N[C@@H](CC(C)C)C(=O)[C@@]1(C)CO1 [Compound 5k, 4-(pyridin-2-yl carbamoyl)piperidin-1-oyl-Leu-Phe-Leu-epoxy ketone]
activity at 10 µM (HELA): 55.8 ± 3.53%
IC50 (LP1): 15.2 ± 2.82 nM
IC50 [2]: 15.3 nM
Tumor inhibition (%) ([1]; 4 mg/kg): 53.62%
Tumor weight (g) mean ± SD ([1]; 4 mg/kg): 0.59 ± 0.24 g
Tumor weight (g), single animals ([1]; 4 mg/kg): 0.20 g and 0.66 g and 0.44 g and 0.52 g and 0.72 g and 0.98 g
activity at 0.1 µM (MM-1S): 72.2 ± 3.19%
activity at 1 µM (MTT cell activity, BORT): 54.5 ± 2.13%
activity at 0.1 µM (MM-1R): 88.2 ± 7.24%
IC50 [4]: 2.5 nM
activity at 10 µM (K562): 55.6 ± 1.53%

Compound: CC(C)C[C@H](NC(=O)N1CCC(C(=O)Nc2cnccn2)CC1)C(=O)N[C@@H](Cc1ccccc1)C(=O)N[C@@H](CC(C)C)C(=O)C1(C)CS1 (stereo partly drawn) [Compound 5t, 4-(pyrazin-2-yl carbamoyl)piperidin-1-oyl-Leu-Phe-Leu-cyclothione]
IC50 [2]: > 1000 nM
IC50 [4]: > 1000 nM

Compound: CC(C)C[C@H](NC(=O)N1CCC(C(=O)Nc2ccc(F)cc2)CC1)C(=O)N[C@@H](Cc1ccccc1)C(=O)N[C@@H](CC(C)C)C(=O)C1(C)CS1 (stereo partly drawn) [Compound 5u, 4-(4-fluorophenyl carbamoyl)piperidin-1-oyl-Leu-Phe-Leu-cyclothione]
IC50 [2]: > 1000 nM
IC50 [4]: > 1000 nM

Compound: CC(C)C[C@H](NC(=O)N1CCC(C(=O)Nc2cnccn2)CC1)C(=O)N[C@@H](Cc1ccccc1)C(=O)N[C@@H](CC(C)C)C(=O)C1(C)CN1 (stereo partly drawn) [Compound 5v, 4-(pyrazin-2-yl carbamoyl)piperidin-1-oyl-Leu-Phe-Leu-aziridinone]
IC50 [2]: > 1000 nM
IC50 [4]: > 1000 nM

Compound: CCN1CC1(C)C(=O)[C@H](CC(C)C)NC(=O)[C@H](Cc1ccccc1)NC(=O)[C@H](CC(C)C)NC(=O)N1CCC(C(=O)Nc2cnccn2)CC1 (stereo partly drawn) [Compound 5w, 4-(pyrazin-2-yl carbamoyl)piperidin-1-oyl-Leu-Phe-Leu-(N-ethyl aziridinone)]
IC50 [2]: > 1000 nM
IC50 [4]: > 1000 nM

— US9856288B2, “Tripeptide epoxyketone compound constructed by heterocycle and preparation method and use thereof” (ZHEJIANG UNIVERSITY, priority 2014, dated 2018)
